# Reference: paper PMC10404626 (The Journal of Biological Chemistry, 2023)
# Read-outs that look alike come from different tables or passages of the source.
# Key:
# [1] = target: T1, Btbc1 (bovine heart mitochondrial cyt bc1, Complex III) (Bos taurus, UniProt P00157+P13272); conditions: cited from earlier work; for incubation time to reach full inhibitory capacity: classic compounds, typical
# [2] = target: T1, Btbc1 (bovine heart mitochondrial cyt bc1, Complex III); assay: Inhibition of bovine heart mitochondrial cyt bc1 activity; assay type: biochemical; conditions: IC50, incubation time 5 minutes; cyt c reduction
# [3] = test system: P. falciparum cyt b mutant parasites (F264L, A122T, Y268S); conditions: cyt b Y268S mutant parasites of the 106/1 line; cited from earlier work
# [4] = test system: wild-type P. falciparum-infected erythrocytes; conditions: cited from earlier work
# [5] = target: T2, Rsbc1 (cyt bc1 from Rhodobacter sphaeroides) (Cereibacter sphaeroides, UniProt Q02761+Q02762); conditions: read-out: half-maximum inhibition (IC50); previous work; cited from earlier work
# T2 sequence (Q02761 1-445): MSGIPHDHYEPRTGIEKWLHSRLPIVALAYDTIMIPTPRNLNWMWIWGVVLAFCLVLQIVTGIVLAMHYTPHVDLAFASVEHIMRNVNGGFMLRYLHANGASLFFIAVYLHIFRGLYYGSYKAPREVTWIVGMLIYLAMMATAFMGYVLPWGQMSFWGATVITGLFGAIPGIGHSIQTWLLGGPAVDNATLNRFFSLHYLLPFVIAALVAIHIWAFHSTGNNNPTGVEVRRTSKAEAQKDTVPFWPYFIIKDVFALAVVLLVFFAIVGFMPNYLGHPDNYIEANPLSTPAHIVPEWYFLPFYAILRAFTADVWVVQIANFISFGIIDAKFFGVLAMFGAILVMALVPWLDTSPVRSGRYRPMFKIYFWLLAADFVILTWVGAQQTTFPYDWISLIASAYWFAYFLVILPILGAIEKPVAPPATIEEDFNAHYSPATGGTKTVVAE
# T2 sequence (Q02762 1-187): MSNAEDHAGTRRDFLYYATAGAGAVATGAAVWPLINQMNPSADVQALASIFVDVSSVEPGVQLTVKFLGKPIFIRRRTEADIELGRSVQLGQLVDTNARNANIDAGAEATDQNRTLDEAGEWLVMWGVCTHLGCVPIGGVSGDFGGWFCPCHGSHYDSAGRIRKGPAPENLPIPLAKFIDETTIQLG
# T2 sequence (Q02760 23-285 partner): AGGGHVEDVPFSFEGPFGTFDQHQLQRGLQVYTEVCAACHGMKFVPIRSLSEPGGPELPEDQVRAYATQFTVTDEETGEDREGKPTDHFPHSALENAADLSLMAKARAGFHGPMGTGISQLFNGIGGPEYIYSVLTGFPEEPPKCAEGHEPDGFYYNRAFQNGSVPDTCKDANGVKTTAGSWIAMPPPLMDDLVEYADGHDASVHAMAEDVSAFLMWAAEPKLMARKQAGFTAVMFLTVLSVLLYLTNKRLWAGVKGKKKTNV
# [6] = test system: yeast cyt b L275F mutation; conditions: cited from earlier work
compound,measurement,setting,value
"CCCCCCCCCCCC1=C(O)C(=O)c2scnc2C1=O [UHDBT, 5-n-undecyl-6-hydroxy-4,7-dioxobenzothiazole]",incubation time to reach full inhibitory capacity,[1],less than 5 min
CO/C(=C/C(N)=O)[C@H](C)[C@H](/C=C/c1csc(-c2csc([C@@H](C)/C=C/C=C/C(C)C)n2)n1)OC [myxothiazol],incubation time to reach full inhibitory capacity,[1],less than 5 min
C/C=C(C)/C=C/C=C/[C@H](OC)[C@@H](C)[C@@H](OC)[C@@H](C)CCc1oc2c(O)c(OC)cc(OC)c2c(=O)c1C [stigmatellin],IC50,[2],1 nM
same,incubation time to reach full inhibitory capacity,[1],less than 5 min
O=C1C(O)=C([C@H]2CC[C@H](c3ccc(Cl)cc3)CC2)C(=O)c2ccccc21 [atovaquone],IC50,[2],2630 nM
same,EC50,[3],> 6760 nM
same,IC50,[4]; P. falciparum wild-type lines,~13 nM
same,EC50,[4]; wild-type parasites of the 106/1 line,1.1 nM
C[C@@]1(c2ccc(Oc3ccccc3)cc2)OC(=O)N(Nc2ccccc2)C1=O (racemic) [famoxadone],IC50,"[1]; read-out: half-maximum inhibition (IC50), previous work",418 nM
same,IC50,[5],1.4 nM
same,reduction in the IC50 value,[6],20 fold
